Test results reported in PMC6030159 (Scientific Reports, 2018).
“Also recorded” adds a separate entry of the source.

Experiments:
[1] = system: T1, endogenous MYC:MAX; assay: Coimmunoprecipitation of MAX with MYC, MDA-MB231 cells; assay type: cell-based; details: 5 μM, 3 hours post treatment
T1 construct: endogenous in cells; host or cells: MDA-MB231
Method: These assays were performed essentially as described in[67],[68]. For further information on immunohistochemistry, and on primers and antibodies, see Supplementary Information.

[2] = molecular target: S-adenosylmethionine decarboxylase (AdoMetDC); design: method as in PMID 17676832; details: cited from earlier work
[3] = system: Burkitt's lymphoma cell lines Mutu, Daudi and ST486; assay: Growth of Burkitt's lymphoma cell lines; assay type: cell-based
Method: Cell proliferation assays. Cell growth and viability was estimated in triplicates with WST-1 (Roche) or Resazurin sodium salt (Sigma-Aldrich) assays in medium at 37°C and 5% CO 2 for 2 hours after which absorbance or fluorescence, respectively, was measured with an Omega Fluostar (BMG Labtech) in a 96 well plate format. Cell counting was done in 96 well plates with CellTracker Green (ThermoFisher) for 30 min in the incubator, after which DAPI was added for 5 min. Images were taken in the green (FITC) and blue (DAPI) channels using a fluorescence microscope (ImageXpress Micro, Molecular Devices). […]
0.7% agarose. […]

[4] = system: SK-N-DZ MYCN-amplified neuroblastoma xenograft tumors; assay: SK-N-DZ neuroblastoma xenograft tumor model; assay type: in vivo, mouse; details: 20 mg/kg i.p. daily, 1–2 weeks, vs vehicle
Method: The last dose was administered 3 hrs before termination. […]
Immunohistochemistry. Apoptosis was visualized at the single-cell level on tumor cryosections using the TUNEL method using the In Situ Cell Death Detection Fluorescein-Roche kit and analyzed by fluorescence microscopy. Briefly, tumor cryosections were fixed in 4% paraformaldyde (PFA) and the assay was performed following the instructions from the manufacturer. Negative controls were run using the reagent without the TdT enzyme. Samples were mounted using Vectashield mounting medium (Vector) and DAPI was used as nuclear counterstaining. Cell proliferation and microvascular density (MVD) were evaluated through Ki67 and CD31staining, respectively, on tumor cryosections and detected by immunofluoresence. Visualization and image acquisition was done in a Zeiss microscope, and for panoramic views by a Vectra imaging system. For quantification, areas with positive TUNEL and Ki67 staining were measured using Image J software. For the analysis of MVD, the number of vessel structures per microscopic field was calculated.

[5] = molecular target: MAX bHLHZip (Homo sapiens, UniProt P61244); assay: SPR binding to MAX
Method: The MYC SPR assay was carried out as described above with MYCbHLHZip immobilized to a level of 800–1000 RU. For kinetic binding experiments, a Langmuir 1:1 binding event was applied using the Biacore T200 Evaluation Software 2.0 (GE Healthcare) to determine association (ka) and dissociation (kd) constants of the compound and to calculate affinity (KD) by the formula; KD = kd/ka. Binding responses from equilibrium binding experiments were plotted against compound concentration and KD values were determined at 50% of the theoretical Rmax with the formula Rmax = (MW analyte/MW ligand) × immobilized ligand level on the chip (RU) × stoichiometry (1:1). Same coupling method described above was used to immobilize the control proteins. MAX was immobilized to approximately 2000 RU, MAD to 600 RU, BSA to 1000 RU, p53 to 3000 RU and BCL-XL, to 500 RU.

[6] = system: T2, MYCN:MAX interaction; assay: isPLA MYCN:MAX on xenograft tumor tissue; assay type: in vivo, mouse; details: 20 mg/kg i.p. daily, 1–2 weeks, vs vehicle
T2 construct: from tissue; host or cells: SK-N-DZ xenograft tumour grown in athymic nude mice
Method: isPLA for tumor tissue was performed using 4% formaldehyde fixed paraffin embedded material. The tissue slides were deparaffinized at 65 °C for an hour, rehydrated in 1X Aqua De Par (Biocare Medical) and incubated at 80 °C for 10 min in a pressure chamber (Decloaking Chamber™ Biocare Medical). Slides were soaked in antigen retrieval buffer (10 mM sodium citrate, pH 6.0) and heated in the pressure chamber to 100 °C for 20 minutes, after which the temperature was lowered to 65 °C. Slides were removed from the chamber and cooled down to room temperature. The antigen retrieval buffer was replaced gradually by deionized H2O for 15 min. Slides were placed in blocking buffer (Duolink® isPLA kit) for 1.5 hours at 37 °C followed by an extra blocking step using the Mouse on Mouse (M.O.M.™) basic kit (Vector Laboratories) according to manufacturers’ protocol. isPLA was performed as above.
The last dose was administered 3 hrs before termination.

MAX bHLHZip, sequence (P61244 23-102 limits assumed): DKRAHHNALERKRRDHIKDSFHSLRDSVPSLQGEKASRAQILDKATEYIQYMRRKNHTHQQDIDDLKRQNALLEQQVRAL

For `CCOc1ccc2nc3cc(/N=N/c4ccc(N)nc4N)ccc3c(N)c2c1` [MYCMI-6], the “coimmunoprecipitation of endogenous MYC:MAX” value [1] is listed as “reduced the MYC:MAX protein interaction”, the “IC50 for AdoMetDC relative to MYC:MAX in vitro” value [2] is listed as “approximately 10 fold” and the GI50 ([3]; Burkitts lymphoma cell, Mutu, Daudi, ST486, read-out: average GI50, Burkitt's lymphoma cells) is listed as 500 nM. For the same molecule, the “lowest IC50/GI50 of tumor cell growth” value ([3]; neuroblastoma and Burkitt's lymphoma cells with deregulated MYCN/MYC, as low as) was ≥ 500 nM, the “apoptotic areas in tumors (TUNEL)” value [4] was “dramatic increase” and the “microvascular density (CD31)” value [4] was “significantly reduced”. The “non-proliferative areas (Ki67)” value [4] was “significant increase”, the “tumor histology (H&E)” value [4] was “signs of necrosis and hemorrhage” and the “binding to MAX (SPR)” value [5] was “negligible; also recorded: did not bind to MAX”. For the same molecule, the “MYCN:MAX interaction in tumors (isPLA)” value [6] was “significant reduction”.
